Drawing on patent US20230192705A1, “SHP2 INHIBITORS, COMPOSITIONS AND USES THEREOF” (Betta Pharmaceuticals Co., Ltd, priority 2020, published 2023), this text covers IC50 for 16 compounds.

Structures are written as SMILES. Where two headings read alike, the source gives them in different places. A value given as a limit tells only on which side of the number the result lay.

The target of experiment [1] is T1, SHP2 (Homo sapiens, UniProt Q06124).
T1 sequence (Q06124 1-593): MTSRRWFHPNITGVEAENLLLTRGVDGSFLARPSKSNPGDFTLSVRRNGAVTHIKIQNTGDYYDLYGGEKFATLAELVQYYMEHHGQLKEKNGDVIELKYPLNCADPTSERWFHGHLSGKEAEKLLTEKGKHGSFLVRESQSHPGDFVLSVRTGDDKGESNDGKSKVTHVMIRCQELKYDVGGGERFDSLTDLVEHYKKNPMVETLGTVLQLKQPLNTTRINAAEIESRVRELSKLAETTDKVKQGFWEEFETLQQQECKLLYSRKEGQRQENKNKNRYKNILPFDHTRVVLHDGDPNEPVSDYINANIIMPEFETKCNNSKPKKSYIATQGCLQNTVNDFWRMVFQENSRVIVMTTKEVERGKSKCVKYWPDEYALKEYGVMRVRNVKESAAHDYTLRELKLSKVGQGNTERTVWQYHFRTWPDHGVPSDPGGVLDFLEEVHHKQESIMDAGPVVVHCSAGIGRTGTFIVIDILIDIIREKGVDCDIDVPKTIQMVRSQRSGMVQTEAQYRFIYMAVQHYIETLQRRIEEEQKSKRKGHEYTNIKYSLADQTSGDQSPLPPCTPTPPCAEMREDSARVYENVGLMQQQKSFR
The experiment in a line: SHP2 allosteric inhibitor enzyme activity assay (DiFMUP fluorescence). The format is biochemical. The method in brief:
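SHP2 activated by 0.5 μM IRS1_pY1172(dPEG8)pY1222 peptide, 0.2 ng enzyme per well, 1 h at room temperature with compound (1 μM top, 3-fold series), then DiFMUP substrate 1 h. Buffer: 60 mM HEPES, 75 mM NaCl, 75 mM KCl, 0.05% BRIJ-35, 1 mM EDTA, 5 mM DTT. Fluorescence ex 340/em 450 nm; IC50 by variable-slope fit.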

Experiment [2] deals with leukemia MV-4-11 cell. Kind of experiment: Cell proliferation assay (CellTiter-Glo), MV-4-11. The format is cell-based. Conditions: Homo sapiens, MV4-11, MV-4-11, 120 hrs, CTG, read-out: Compound on MV-4-11 cell IC50. Here is the method:
(§1) The effects of the compounds on the proliferation of leukemia MV-4-11 cell and lung cancer NCI-H358 cell were evaluated by in vitro cell test. The assay used in this study was the CELL TITER-GLO (CTG) luminescence assay, which can detect the number of living cells by quantitative determination of ATP. Because ATP is involved in a variety of enzymatic reactions in vivo and is an indicator of the metabolism of living cells, its content can directly reflects the number and state of cells. During the experiment, Celltiter-Glo™ reagent was added to the cell culture medium to measure the luminescence value. The luminescence value was proportional to the amount of ATP, which in turn was positively correlated with the number of living cells. Therefore, ATP content can be used to detect cell viability.
A bottle of MV-4-11 cells in logarithmic growth phase was taken, the cells were collected, centrifuged, resuspend, counted, and then inoculated into 96-well Microplate (Corning #3917), with 4000 cells inoculated in each well. The plates were placed in an incubator at 37° C. and 5% CO2 for 24 hrs culture, and the compounds of the invention were added for conducting.
(§2) An appropriate amount of the compound of the invention was taken for cell treatment, and the final concentration of the compound from high to low was 1000 nM, 333.3 nM, 111.1 nM, 37.04 nM, 12.35 nM, 4.115 nM, 1.372 nm, 0.4572 nM, 0.1524 nM, 0 nM, respectively. The orifice plate was cultured in an incubator at 37° C. and 5% CO2. Only adding medium without adding cell hole was set as blank group. Compound concentration of 0 nM group was zero control group.
After cultured for 120 hrs, MV-4-11 cells were added with 50 μL CellTiter-Glo® Luminescent cell viability assay solution in each well, gently shaken for 2 mins, and incubated at room temperature for 10 mins. The detection values of each well were read on the multi-functional microplate reader.
(§3) The inhibition rate is calculated according to the luminous value reading,
(§4) Inhibition rate %=(1−(administration group value−blank group value)/(control group value−blank group value)*100
(§5) The log (inhibitor) vs. response variable slope of GraphPad Prism was used to fit the dose-response curve and calculate the IC50 of compounds inhibiting cell proliferation.
Background: In ATP-based viability assays light output follows the ATP content of the culture.

In experiment [3] the test system is lung cancer NCI-H358 cell. Kind of experiment: Cell proliferation assay (CellTiter-Glo), NCI-H358. The format is cell-based. To be noted: Homo sapiens, NCI-H358, 96 hrs, CTG, read-out: Compound on NCI-H358 cell IC50. The procedure:
as §1
A bottle of NCI-H358 cells in logarithmic growth phase was taken, the cells were digested and resuspend, counted, and then the cell density was adjusted. After that, the cells were inoculated into a 96-well Ultra-Low Attachment Microplate (Corning #3474), 2000 cells were inoculated in each well, and the well plate was placed in an incubator at 37° C. and 5% CO2, and the compounds of the invention were added for conducting.
as §2
NCI-H358 cells were cultured for 96 hrs, then 50 μL CellTiter-Glo® Luminescent cell viability assay solution was added to each well, and the cells were gently shaken for 2 mins, and incubated at room temperature for 10 mins. The cell reaction system was transferred to 96-well Microplate (Corning #3917). The detection values of each well were read on the multi-functional microplate reader.
as §3, §4, §5

The IC50 is the concentration needed to halve the response being measured. On to `C#Cc1cccc(C2(c3n[nH]c4nc(N5CCC6(CC5)Cc5ccccc5[C@H]6N)[nH]c(=O)c34)CC2)c1` [Example 222, (S)-6-(1-amino-1,3-dihydrospiro[indene-2,4′-piperidin]-1′-yl)-3-(1-(3-ethynylphenyl)cyclopropyl)-1,5-dihydro-4H-pyrazolo[3,4-d]pyrimidin-4-one], for which the IC50 in experiment [1] (class symbols), in experiment [2] (class symbols) and in experiment [3] (class symbols) was at most 20 nM in each case.
For `N#Cc1ccc2c(c1)CCC=C2c1n[nH]c2nc(N3CCC4(CC3)Cc3ccccc3[C@H]4N)[nH]c(=O)c12` [Example 122, (S)-5-(6-(1-amino-1,3-dihydrospiro[indene-2,4′-piperidin]-1′-yl)-4-oxo-4,5-dihydro-1H-pyrazolo[3,4-d]pyrimidin-3-yl)-7,8-dihydronaphthalene-2-carbonitrile], the IC50 was found to be 1.1 nM in experiment [1] (numeric values), 2.1 nM in experiment [2] (numeric values) and 1.1 nM in experiment [3] (numeric values).
As for `N[C@@H]1c2ccccc2CC12CCN(c1nc3[nH]nc(C4=CCCCc5ccccc54)c3c(=O)[nH]1)CC2` [Example 125], the IC50 in experiment [1] (numeric values) came to 1.6 nM; in experiment [2] (numeric values), 1.9 nM; in experiment [3] (numeric values), 1.1 nM.
With `N[C@@H]1c2ccccc2CC12CCN(c1nc3[nH]nc(C4(c5cccc(Cl)c5)CC4)c3c(=O)[nH]1)CC2` [Example 4, (S)-6-(1-amino-1,3-dihydrospiro[indene-2,4′-piperidin]-1′-yl)-3-(1-(3-chlorophenyl)cyclopropyl)-1,5-dihydro-4H-pyrazolo[3,4-d]pyrimidin-4-one], the IC50 in experiment [1] (class symbols), in experiment [2] (class symbols) and in experiment [3] (class symbols) was at most 20 nM each time.
As for `CC1(C)C=C(c2n[nH]c3nc(N4CCC5(CC4)Cc4ccccc4[C@H]5N)[nH]c(=O)c23)c2ccc(C(F)(F)F)nc2C1` [Example 144, (S)-6-(1-amino-1,3-dihydrospiro[indene-2,4′-piperidin]-1′-yl)-3-(7,7-dimethyl-2-(trifluoromethyl)-7,8-dihydroquinolin-5-yl)-1,5-dihydro-4H-pyrazolo[3,4-d]pyrimidin-4-one], the IC50 is at most 20 nM in experiment [1] (class symbols), 20 to 60 nM in experiment [2] (class symbols) and 20 to 60 nM in experiment [3] (class symbols).
Take `Cc1cccc(C2(c3n[nH]c4nc(N5CCC6(CC5)Cc5ccccc5[C@H]6N)[nH]c(=O)c34)CC2)c1` [Example 10, (S)-6-(1-amino-1,3-dihydrospiro[indene-2,4′-piperidin]-1′-yl)-3-(1-(m-tolyl)cyclopropyl)-1,5-dihydro-4H-pyrazolo[3,4-d]pyrimidin-4-one]: the IC50 is 0.9 nM in experiment [1] (numeric values), at most 20 nM in experiment [2] (class symbols) and at most 20 nM in experiment [3] (class symbols).
As for `COc1cccc(C2(c3n[nH]c4nc(N5CCC6(CC5)Cc5ccccc5[C@H]6N)[nH]c(=O)c34)CC2)c1` [Example 18, (S)-6-(1-amino-1,3-dihydrospiro[indene-2,4′-piperidin]-1′-yl)-3-(1-(3-methoxyphenyl)cyclopropyl)-1,5-dihydro-4H-pyrazolo[3,4-d]pyrimidin-4-one], the IC50 in experiment [1] (class symbols), in experiment [2] (class symbols) and in experiment [3] (class symbols) was at most 20 nM in each case.
For `N[C@@H]1c2ccccc2CC12CCN(c1nn3cc(C4CC4)nc3s1)CC2` [Comparative compound 2, reference compound], the figures for the IC50 in experiment [2] (numeric values) and in experiment [3] (numeric values) were 454 nM and 1810 nM, respectively.
For the compound `N[C@@H]1c2ccccc2CC12CCN(c1nc3[nH]nc(C4(c5ccc(F)c(F)c5)CC4)c3c(=O)[nH]1)CC2` [Example 20, (S)-6-(1-amino-1,3-dihydrospiro[indene-2,4′-piperidin]-1′-yl)-3-(1-(3,4-difluorophenyl)cyclopropyl)-1,5-dihydro-4H-pyrazolo[3,4-d]pyrimidin-4-one], in experiment [1] (class symbols), the IC50 was at most 20 nM.
On the same count and under the same terms, the same measure for `Cc1cccc(C2(c3n[nH]c4nc(N5CCC6(CC5)CO[C@@H](C)[C@H]6N)[nH]c(=O)c34)CC2)c1` [Example 301, 6-((3S,4S)-4-amino-3-methyl-2-oxa-8-azaspiro[4.5]decan-8-yl)-3-(1-(m-tolyl)cyclopropyl)-1,5-dihydro-4H-pyrazolo[3,4-d]pyrimidin-4-one]: 20 to 60 nM.
Same read-out and setting: the same measure for `C[C@@H]1OCC2(CCN(c3nc4[nH]nc(C5(c6ccc(F)c(F)c6)CC5)c4c(=O)[nH]3)CC2)[C@@H]1N` [Example 295, 6-((3S,4S)-4-amino-3-methyl-2-oxa-8-azaspiro[4.5]decan-8-yl)-3-(1-(3,4-difluorophenyl)cyclopropyl)-1,5-dihydro-4H-pyrazolo[3,4-d]pyrimidin-4-one]: 20 to 60 nM.
`N[C@@H]1c2ccccc2CC12CCN(c1nc3[nH]nc(C4=CSCc5ccccc54)c3c(=O)[nH]1)CC2` [Example 134, (S)-6-(1-amino-1,3-dihydrospiro[indene-2,4′-piperidin]-1′-yl)-3-(1H-isothiochromen-4-yl)-1,5-dihydro-4H-pyrazolo[3,4-d]pyrimidin-4-one] had a concentration for half-maximal inhibition (IC50) in experiment [1] (numeric values) of 1.7 nM.
Compound `COc1cc(C2(c3n[nH]c4nc(N5CCC6(CC5)CO[C@@H](C)[C@H]6N)[nH]c(=O)c34)CC2)ccc1F` [Example 289, 6-((3S,4S)-4-amino-3-methyl-2-oxa-8-azaspiro[4.5]decan-8-yl)-3-(1-(4-fluoro-3-methoxyphenyl)cyclopropyl)-1,5-dihydro-4H-pyrazolo[3,4-d]pyrimidin-4-one] returned an IC50 in experiment [1] (class symbols) of over 60 nM.
On the same count and under the same terms, the same measure for `CCOC(=O)Nc1ccc(C2(c3n[nH]c4nc(N5CCC6(CC5)CO[C@@H](C)[C@H]6N)[nH]c(=O)c34)CC2)cc1` [Example 303, ethyl(4-(1-(6-((3S,4S)-4-amino-3-methyl-2-oxa-8-azaspiro[4.5]decan-8-yl)-4-oxo-4,5-dihydro-1H-pyrazolo[3,4-d]pyrimidin-3-yl)cyclopropyl)phenyl)carbamate]: 20 to 60 nM.
On the same count and under the same terms, the same measure for `C[C@@H]1OCC2(CCN(c3nc4[nH]nc(C5(c6cccc(C#N)c6)CC5)c4c(=O)[nH]3)CC2)[C@@H]1N` [Example 290, 3-(1-(6-((3S,4S)-4-amino-3-methyl-2-oxa-8-azaspiro[4.5]decan-8-yl)-4-oxo-4,5-dihydro-1H-pyrazolo[3,4-d]pyrimidin-3-yl)cyclopropyl)benzonitrile]: 20 to 60 nM.
Still for that read-out and setting: then `CC1(C)C=C(c2n[nH]c3nc(N4CCC5(CC4)Cc4ccccc4[C@H]5N)[nH]c(=O)c23)c2cn(CC(F)(F)F)nc2C1` [Example 154, (S)-6-(1-amino-1,3-dihydrospiro[indene-2,4′-piperidin]-1′-yl)-3-(6,6-dimethyl-2-(2,2,2-trifluoroethyl)-6,7-dihydro-2H-indazol-4-yl)-1,5-dihydro-4H-pyrazolo[3,4-d]pyrimidin-4-one], with at most 20 nM.
